Experimental data from patent publication US8703815B2, “Small molecules that covalently modify transthyretin” (The Scripps Research Institute, priority 2009, dated 2014).
Like-named read-outs stand apart in the source and are kept apart here.

Legend:
K15A-TTR = target: T1, K15A-TTR (Homo sapiens, UniProt P02766, K35A); assay: RP-HPLC analysis of reaction with K15A-TTR homotetramer; type: binding
T1 construct: composed of 127-residue β-sheet-rich subunits; made in house
From the text: A strictly analogous study performed with the K15A homotetrameric TTR mutant confirmed that K15 was essential for the observed chemoselective reaction between TTR and Compounds […] (FIG. 1A, bottom trace). […] However, it is important to note that Compounds 1-3 were only slightly less chemoselective (<5% reaction with K15A).
The ability of compounds A1 and A2, auxochromic analogs of previously discussed stilbenes [Klabunde et al., Nat. Struct. Biol. 2000, 7, 312-321; Connelly et al., Curr. Opin. Struc. Biol. 2010, 20, 54-62; Johnson et al., J. Med. Chem. 2008, 51, 6348-6358; Choi et al., J. Am. Chem. Soc. 2010, 132, 1359-1370; Choi et al., Nat. Chem. Biol. 2010, 6, 133-139; and Baures et al., Bioorg. Med. Chem. 1998, 6, 1389-1401] to form a chemoselective amide bond with the K15 residue of TTR was assessed by reverse-phase-HPLC and liquid chromatography-mass spectrometry analysis. […] The binding of the covalent modifier A2 to K15A-TTR (in the absence of amide bond conjugation) was confirmed by incubating A2 with K15A-TTR in phosphate buffer (pH 7) followed by K15A immunoisolation using a Sepharose® resin-conjugated anti-TTR polyclonal antibody [Purkey et al., Proc. Natl. Acad. Sci. U.S.A. 2001, 98, 5566-5571].
Recombinant WT-TTR was expressed as described previously [Lashuel et al., Biochemistry 38:13560-13573 (1999)]. For analysis of test compounds with TTR, each compound (1.5 μL in DMSO, 1.44 mM) was added to 300 μL of WT-TTR or K15A mutant TTR (3.6 μM, 10 mM sodium phosphate, 100 mM KCl, 1 mM EDTA, pH 7.0). The samples were vortexed, and incubated for 18 hours at 25° C. Reverse phase high performance liquid chromatography (RP-HPLC) was performed on a Water 600 E multi-solvent delivery system, using a Waters 486 tunable absorbance detector, a 717 autosampler, and a ThermoHypersil Keystone Betabasic-18 column μ150 Å pore size, 3 μm particle size, and mobile phase A; 0.1% TFA in 95% H2O+5% CH3CN and mobile phase B, 0.1% TFA in 95% CH3CN+5% H2O). Linear gradients were run from 100:0 to 0:100 A:B for 27 minutes.

[1] = test system: WT-TTR cytotoxicity in human IMR-32 neuroblastoma cells; assay: Inhibition of WT-TTR cytotoxicity in IMR-32 cells (resazurin reduction); type: cell-based; settings: WT-TTR 8 μM, compounds 2, 4, 6 and 8 μM, 24 hours
Procedure: Cell viability was measured after 24 hours by a resazurin reduction assay.
(§1) The human neuroblastoma IMR-32 cell line (CCL-127 ATCC) was maintained in Opti-MEM® medium (Invitrogen), supplemented with 5% FBS, 1 mM Hepes buffer, 2 mM L-glutamine, 100 units/mL penicillin, 100 μg/mL streptomycin and 0.05 mg/mL CaCl2 (complete cell medium). Cells were seeded in black wall, clear bottom, tissue culture treated 96-well plates (Costar) at a density of 6,000 cells/well in complete cell medium and incubated overnight (about 18 hours) at 37° C.
(§2) Recombinant WT-TTR purified in the cold was used as the cytotoxic insult. The protein was buffer-exchanged in Hanks' Balanced Salt Solution (HBSS, Mediatech, Manassas, Va.) at 10° C. using a Centriprep® filter device (10 kDa MWCO, Millipore). Compounds (16 mM in DMSO) were diluted 1:1000 with WT-TTR (16 μM in HBSS, filter sterilized) or with HBSS only, vortexed and incubated for 18 hours at 37° C. WT-TTR (16 μM in HBSS) containing the same amount of DMSO was prepared in parallel and incubated under the same conditions.
(§3) The medium was removed from the cells and replaced immediately by the TTR/compound mixtures or HBSS previously diluted 1:1 in Opti-MEM® supplemented with 0.8 mg/mL BSA, 2 mM Hepes buffer, 4 mM L-glutamine, 200 units/mL penicillin, 200 μg/mL streptomycin and 0.1 mg/mL CaCl2. The cells were incubated 24 hours at 37° C. Cell viability was evaluated by a resazurin reduction assay.
(§4) Briefly, 10 μL of resazurin (500 μM, PBS) was added to each well and fluorescence quantified in a plate reader (Ex/Em 530/590 nm, Tecan Safire 2, Austria) after 1 hour of incubation at 37° C. Cell viability was calculated as percentage of fluorescence relative to cells treated only with vehicle (100% viability) after subtraction of blank fluorescence (wells without cells). Averages and standard errors from 2 independently performed studies, each performed at least in triplicate, were calculated using GraphPrism (San Diego, Calif., US).

IMR-32 cells = assay: Compound cytotoxicity to IMR-32 cells in the absence of WT-TTR; type: cell-based, human
Procedure: Metabolically active cells reduce the resazurin redox dye to resorufin, a soluble fluorescent compound. [O'Brien et al., Eur. J. Biochem. 267:5421-5426 (2002)] The percentage of viable cells was calculated relative to cells treated with vehicle only (cell culture media and DMSO=100% viable).
as §1, §2, §3, §4

SMILES	reaction with K15A-TTR (in words) (K15A-TTR)	inhibition of WT-TTR cytotoxicity to IMR-32 cells (in words) [1]	cytotoxicity to IMR-32 cells in the absence of WT-TTR (IMR-32 cells; human, IMR-32 neuroblastoma cells, 24 h, 8 µM)	cytotoxicity to IMR-32 cells in the absence of WT-TTR (IMR-32 cells)
Cc1cc(/C=C/c2cccc(C(=O)Oc3ccc(F)cc3)c2)cc(C)c1O [Compound 4, (E)-4-fluorophenyl 3-(4-hydroxy-3,5-dimethylstyryl)benzoate]	no reaction could be detected	clearly and dose-dependently inhibits IMR-32 cytotoxicity	None of these compounds were cytotoxic to IMR-32 cells	
Cc1cc(/C=C/c2cc(C(=O)Sc3ccc(F)cc3)cc(N(C)C)c2)cc(C)c1O [Compound A2, (E)-S-4-fluorophenyl 3-(dimethylamino)-5-(4-hydroxy-3,5-dimethylstyryl)-benzothioate]	no conjugation			
Cc1cc(/C=C/c2cccc(C(=O)Sc3ccccc3)c2)cc(C)c1O [Compound 2, (E)-S-phenyl 3-(4-hydroxy-3,5-dimethylstyryl)benzothioate]		clearly and dose-dependently inhibits IMR-32 cytotoxicity		None of these compounds were cytotoxic to IMR-32 cells
